Drawing on patent publication US4736057A, “Cyclohexane derivatives” (Imperial Chemical Industries PLC, priority 1983, dated 1988), this text covers pA2 and ED50 for two molecules.

For test [1], the system named is thromboxane A2 (TXA2). Briefly: rabbit aortal strip model, test (a), using the TXA2 mimetic U46619 as agonist. The format is cell-based. The source says:
(a) The rabbit aortal strip model devised by Piper and Vane (Nature. […]. 223, 29-35) using as agonist the TXA2 mimetic agent known as U46619 (R. L. Jones et alia in "Chemistry, Biochemistry and Pharmacological Activity of Prostanoids", eds. S. M. Roberts and F. Scheinman, at p.211, Pergamon Press, 1979);

For test [2], the system named is hypertensive effect of TXA2 mimetic agent U46619. Briefly: hypertensive effect of U46619 in anaesthetised rats, test (d). Type of test: in vivo, rats (Alderley Park strain). Conditions: Rattus norvegicus, iv; intravenously via the jugular vein, anaesthetised male rats, blood pressure at carotid artery, n=3; read-out: ED50 (dose necessary to produce 50% of the maximum hypertensive effect). The procedure:
(d) Male rats (Alderley Park strain) are anaesthetised with sodium pentobarbital and blood pressure is monitored at the carotid artery. The TXA2 mimetic agent known as U46619 is administered intravenously via the jugular vein and an ED50 (dose necessary to produce 50% of the maximum hypertensive effect) is established (n=3). The ED50 for U46619 is approximately 5 μg/kg. A test compound is then administered either intravenously via the jugular vein or orally via a cannula directly into the stomach and the animal challenged with an ED50 dose of U46619, five minutes after dosing with test compound and then successively every ten minutes until the hypertensive effect of U46619 is no longer blocked.

In the case of `O=C(O)CCC/C=C\C[C@@H]1CC[C@H](OCc2ccccc2)C[C@@H]1c1ccccc1` (relative stereo) [Example 16, 5(Z)-7-([1,2,4-cis]-4-benzyloxy-2-phenylcyclohexyl)heptenoic acid], the pA2 in test [1] was 5.9.
Consider `CCCCC[C@H](O)/C=C/[C@@H]1[C@@H](C/C=C\CCCC(=O)O)[C@H]2CO[C@@H]1C2` [Example U46619], for which, in test [2], the ED50 was approximately 5 µg/kg.

In general, pA2 refers to a measure of antagonist potency on a negative log scale. What is called ED50 is the dose at which the effect has come halfway, by size or by number of responders.
